Experimental data as given in patent publication US9307764B2, “Pesticidal diaryl—heterocyclyl derivatives” (BAYER INTELLECTUAL PROPERTY GMBH, priority 2011, dated 2016).

How the values were obtained:
Format in all cases: in vivo
[1] = test system: Spodoptera litura; assay: Biological Test Example 3: Test on larvae of Spodoptera litura (method using artificial feeds); settings: 100 ppm effective component concentration, 3rd-instar larvae, after 7 days, 25° C.
Method: (§1) Unless other methods are mentioned specifically, the sample solution preparation was prepared as follows.
(§2) Solvent: 3 parts by weight of dimethyl formamide
(§3) Emulsifier: 1 part by weight of polyoxyethylene alkyl phenyl ether
(§4) To prepare a suitable concoction including the active compound, 1 part by weight of the active compound was mixed with the above amount of the solvent containing the above amount of the emulsifier, and the resulting mixture was diluted with water to predetermined concentrations.
Powdery artificial feeds (trade name: SILK MATE, manufactured by Nihon Nosan Kogyo, Japan, 2.3 g) were added to a plastic cup (diameter: 7.5 cm, height: 4 cm) to achieve a certain thickness. Water-diluted liquid (5 mL) of the active compound prepared above having predetermined concentration was evenly poured thereto and allowed to stand until the feeds are solidified. Five of the 3rd-instar larvae of Spodoptera litura were released in each cup, and covered with a lid. The cups were put in a temperature controlled room at 25° C. having humidity of 50 to 60%, and the number of dead larvae after 7 days was determined to calculate the pesticidal ratio. 100% pesticidal ratio means death of all the larvae, while 0% pesticidal ratio means no dead larvae.

[2] = test system: Aulacophora femoralis; assay: Biological Test Example 2: Test on Aulacophora femoralis (cucumber leaf immersion); settings: 100 ppm effective component concentration, 2nd-instar larvae, seven days later, 25° C.
Method: as §1, §2, §3, §4
Leaves of cucumbers were immersed in the water-diluted solution containing the active compound at the predetermined concentration which was prepared above and, after the solution was air-dried, the resultant leaves were put onto sterilized black soil in a plastic cup, into which five of the 2nd-instar larvae of Aulacophora femoralis were then released. The cup was covered with a lid and maintained in a temperature controlled room at 25° C. having humidity of 50 to 60%. Seven days later, the number of dead larvae was counted to calculate the pesticidal ratio. 100% pesticidal ratio means death of all the larvae, while 0% pesticidal ratio means no dead larvae.

[3] = test system: Tetranychus urticae; assay: Biological Test Example 1: Test on Tetranychus urticae (spray on Egyptian bean leaves); settings: 100 ppm effective component concentration, adult mites, seven days later
Method: as §1, §2, §3, §4
50 to 100 of adult Tetranychus urticae were inoculated to leaves at 2-leaf stage of Egyptian bean planted in pots of 6 cm in diameter, to which, 1 day later, the above prepared water diluted solution of the active compound at the predetermined concentration was sufficiently sprayed with a spray gun. After the compounds were sprayed, the pots were left in a greenhouse and the acaricidal ratio was calculated seven days later. 100% acaricidal ratio means death of all the mites, while 0% acaricidal ratio means none of the mites were dead.

| Compound | pesticidal ratio [1] [%] | pesticidal ratio [2] [%] | acaricidal ratio [3] [%] |
| --- | --- | --- | --- |
| CCC(=O)NCc1ccc(N2CC(c3cc(Cl)c(Cl)c(Cl)c3)(C(F)(F)F)OS2=O)cc1C(F)(F)F (centres unmarked) [3-17, N-{4-[2-oxide-5-(3,4,5-trichlorophenyl)-5-(trifluoromethyl)-1,2,3-oxathiazolin-3-yl]-2-(trifluoromethyl)benzyl}propane amide] | 100 | 100 |  |
| CCC(=O)NCc1ccc(N2COC(c3cc(Cl)c(Cl)c(Cl)c3)(C(F)(F)F)C2)cc1C(F)(F)F (centres unmarked) [Compound No. 1-17, N-{4-[5-(3,4,5-trichlorophenyl)-5-(trifluoromethyl)-1,3-oxazolidin-3-yl]-2-(trifluoromethyl)benzyl}propane amide] | 100 | 100 | 100 |
| CCC(=O)NCc1ccc(N2CC(c3cc(Cl)c(Cl)c(Cl)c3)(C(F)(F)F)OS2(=O)=O)cc1C(F)(F)F (centres unmarked) [5-17, N-{4-[2,2-dioxide-5-(3,4,5-trichlorophenyl)-5-(trifluoromethyl)-1,2,3-oxathiazolin-3-yl]-2-(trifluoromethyl)benzyl}propane amide] | 100 | 100 | 100 |
